Common to all, as to assay type: biochemical
One assay concerns the target T1, HIV-2 GagΔMA (Human immunodeficiency virus type 2 (ISOLATE ROD), UniProt P04590).
T1 construct: gene gag; Gag lacking MA; SUMO-tag purification
To be noted: 50 mM Tris pH 8, 100 mM NaCl, GT25 oligo, dialysis, 22 °C.

Another assay concerns the target T2, BIV GagΔMA (Bovine immunodeficiency virus R29, UniProt P19558).
T2 construct: gene gag; Gag lacking MA; SUMO-tag purification
The note with it: 50 mM MES pH 6.5, 100 mM NaCl, GT50 oligo, dilution, 22 °C.

The target in a further assay is T3, SIV GagΔMA (Simian immunodeficiency virus (MM251 ISOLATE), UniProt P05893).
T3 construct: gene gag; Gag lacking MA; SUMO-tag purification
To be noted: 50 mM Tris pH 8, 100 mM NaCl, GT25 oligo, dialysis, 22 °C.

Another assay addresses T4, FIV GagΔMA (Feline immunodeficiency virus (isolate Petaluma), UniProt P16087).
T4 construct: gene gag; Gag lacking MA; SUMO-tag purification
The note with it: 50 mM Bis-Tris propane, 150 mM NaCl, GT50 oligo, dilution, 22 °C.

The target in assay [1] is T5, HIV-1 GagΔMA (GagΔMAΔp1Δp6) (Human immunodeficiency virus type 1 (NEW YORK-5 ISOLATE), UniProt P12493).
T5 construct: gene gag; Gag lacking MA, p1 and p6 (CA-SP1-NC); SUMO-tag purification, E. coli
The note with it: GT25 oligo, pH 6.

SMILES strings stand for the structures.

In the case of `O=P(O)(O)O[C@H]1[C@H](OP(=O)(O)O)[C@@H](OP(=O)(O)O)[C@H](OP(=O)(O)O)[C@@H](OP(=O)(O)O)[C@H]1OP(=O)(O)O` [IP6], the “VLP number with / without IP6” value is recorded as “in the presence of IP6, spherical VLP assembly consistent with an immature lattice was observed” at HIV-2 GagΔMA; “in the presence of IP6, spherical VLP assembly consistent with an immature lattice was observed” on BIV GagΔMA; “in the presence of IP6, spherical VLP assembly consistent with an immature lattice was observed” on SIV GagΔMA; “in the presence of IP6, spherical VLP assembly consistent with an immature lattice was observed” at FIV GagΔMA.
Regarding `O=P(O)(O)O[C@@H]1[C@@H](OP(=O)(O)O)[C@H](OP(=O)(O)O)[C@H](O)[C@H](OP(=O)(O)O)[C@H]1OP(=O)(O)O` [IP5], the “fold increase of round VLPs at 10 μM” value in assay [1] is given as 1000 fold.

For the origin of these results see publication PMC7004409 (PLoS Pathogens, 2020).
